Where a SMILES comes first, the peptide text is derived from it. Bridges are numbered along the chain shown (N, C = ends). [ ]: non-standard residue; d: D form. The star is where a group is joined. ξ: configuration not given here. Butanoyl(3ξ-OH) = CC(O)CC(=O)*; Thr(3ξ) = CC(O)[C@H](N)C(=O)O; Dab = NCC[C@H](N)C(=O)O; Ahp = NCCCCCCC(=O)O

This note sets out measurements from patent US9234006B2, “Compounds” (Novacta Biosystems Limited, priority 2011, dated 2016).

The test system of assay [1] is E. coli ATCC25922. The assay is described as follows: MIC susceptibility testing, broth microdilution in CaMHB. The class given is cell-based, Escherichia coli. Particulars: Table 4A, different batches of cation-adjusted Muller-Hinton broth. The method in brief: (§1)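 Colonies from fresh MHA grown overnight in CaMHB at 37° C, 250 rpm for 18-20 hours, diluted 100-fold and regrown to OD600 0.2-0.3 […]. Actively growing culture diluted 100-fold in fresh medium as inoculum; assays run in duplicate.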

Assay [2] relates to P. aeruginosa ATCC27853. Described as above. The format is cell-based, Pseudomonas aeruginosa. Particulars: Table 4A, different batches of cation-adjusted Muller-Hinton broth. The method in brief:
as §1

The test system of assay [3] is K. pneumoniae ATCC 4352. The assay is described as above. Particulars: K. pneumoniae ATCC4352; Table 4A, different batches of cation-adjusted Muller-Hinton broth. The class given is cell-based, Klebsiella pneumoniae. In a few lines: as §1
Assay [4] relates to A. baumannii ATCC19606. The assay is described as above. The format is cell-based, Acinetobacter baumannii. As to conditions: Table 4A, different batches of cation-adjusted Muller-Hinton broth. In a few lines: as §1
The test system of assay [5] is HK-2 cell line. As to conditions: 24 h incubation, resazurin reduction; Table 7A; footnote c: solubility issues noted at top concentration. The protocol:
The renal cell toxicity of the compounds was assessed in an in vitro assay using the HK-2 cell line, an immortalized proximal tubule cell line derived from a normal human kidney. The endpoint to describe the toxicity of the compounds was the reduction of resazurin correlating with the metabolic activity of the cells.
Cells were cultured in 150 cm^2 flasks in 25 mL supplemented KSF (with 5 ng/mL EGF and 50 μg/mL BPE). Cells were maintained at 70% confluence with a maximum of 25 passages. Day 1: Media was removed and cells were washed with 10 ml DPBS. […] After 1 to 2 minutes incubation, 14 ml media was added to the flask to inactivate the trypsin. The cell suspension was transferred to a centrifuge tube and the cells pelleted at 1000 rpm for 6 minutes. The cell pellet was then resuspended in fresh media supplemented with EGF and BPE. […] 7500 cells were dispensed in each well in a volume of 160 μl and incubated at 37° C. for 24 h.
Day 2: Test compounds were prepared directly into the media. […] The microtiter plates were removed from the incubator and the media replaced with 100 μl of the dilutions of the compound solution. Every set of concentration was done in triplicate, and positive and negative controls were added to each plate. The plates were then incubated for 24 h at 37° C. with 5% CO2 in a humidified atmosphere.
Day 3: The reagent containing the resazurin (CellTiter-Blue, Promega) was diluted in PBS (1:4) and added at 20% (v/v) to each well. The plates were then incubated at 37° C. for 2 h before the fluorescent reduction product was detected.
Media only background values were subtracted before the data was analysed using GraphPad Prism. Compound concentration values were plotted as log values to enable a dose-response curve to be fitted and IC50 values determined (Table 7).
The renal cell toxicity of the additional example compounds was assessed in an in vitro assay using the HK-2 cell as described in the example above.

The test system of assay [6] is E. coli ATCC700928. The assay is described as follows: MIC susceptibility testing, broth microdilution in CaMHB. The class given is cell-based, Escherichia coli. As to conditions: Table 4A, different batches of cation-adjusted Muller-Hinton broth. The method in brief:
as §1

Assay [7] relates to E. coli NCTC12900. The description is as above. The format is cell-based, Escherichia coli. Particulars: Table 4A, different batches of cation-adjusted Muller-Hinton broth. The method in brief: as §1
For assay [8], the system named is E. coli NCTC9001. Described as above. As to conditions: Table 4A, different batches of cation-adjusted Muller-Hinton broth. The class given is cell-based, Escherichia coli. In a few lines: as §1
Assay [9] concerns P. aeruginosa ATCC 9721. Described as above. The class given is cell-based, Pseudomonas aeruginosa. As to conditions: P. aeruginosa ATCC9721; Table 4A, different batches of cation-adjusted Muller-Hinton broth. The method in brief: as §1
The subject of assay [10] is P. aeruginosa ATCC10145. The description is as above. The class given is cell-based, Pseudomonas aeruginosa. As to conditions: Table 4A, different batches of cation-adjusted Muller-Hinton broth. The method in brief: as §1
For assay [11], the system named is P. aeruginosa ATCCCRM-9027. Described as above. The class given is cell-based, Pseudomonas aeruginosa. Particulars: P. aeruginosa AATCCRM 9027; Table 4A, different batches of cation-adjusted Muller-Hinton broth. The method in brief:
as §1

The subject of assay [12] is K. pneumoniae NCTC7427. Described as above. The class given is cell-based, Klebsiella pneumoniae. As to conditions: Table 4A, different batches of cation-adjusted Muller-Hinton broth. In a few lines:
as §1

The test system of assay [13] is K. pneumoniae NCTC8172. Described as above. The class given is cell-based, Klebsiella pneumoniae. As to conditions: Table 4A, different batches of cation-adjusted Muller-Hinton broth. In a few lines:
as §1

In assay [14] the test system is A. baumannii ATCCBAA-747. The description is as above. The format is cell-based, Acinetobacter baumannii. As to conditions: Table 4A, different batches of cation-adjusted Muller-Hinton broth. The method in brief:
as §1

For assay [15], the system named is A. baumannii NCTC13423. The description is as above. The class given is cell-based, Acinetobacter baumannii. As to conditions: Table 4A, different batches of cation-adjusted Muller-Hinton broth. The method in brief:
as §1

For assay [16], the system named is A. baumannii NCTC7844. The assay is described as above. The format is cell-based, Acinetobacter baumannii. Particulars: Table 4A, different batches of cation-adjusted Muller-Hinton broth. The method in brief:
as §1

In assay [17] the test system is A. baumannii clinical isolates and resistant strains. The class given is cell-based. As to conditions: A. baumannii. The procedure:
(§2) The in vitro antibacterial activities of the compounds of examples 2 and 6 were evaluated against a panel of […] Gram-negative bacterial isolates alongside Colistin. The panel consisted of 100 clinical isolates of each of A. baumannii, E. coli, K. pneumoniae and P. aeruginosa. The panel represented the current epidemiology in Europe and the USA and included a number of relevant strains with defined resistant phenotypes to current clinically-used antibacterial agents. These resistant strains included 20 A. baumannii, 22 E. coli, 25 K. pneumoniae and 20 P. aeruginosa strains.
(§3) All compounds were tested up to a maximum concentration of 64 μg/mL with the exception of colistin, which was evaluated up to a maximum concentration of 16 μg/mL.

The test system of assay [18] is E. coli clinical isolates and resistant strains. The class given is cell-based. Particulars: E. coli. The protocol: as §2, §3
Assay [19] deals with K. pneumoniae clinical isolates and resistant strains. The format is cell-based. As to conditions: K. pneumoniae. The procedure:
as §2, §3

The subject of assay [20] is P. aeruginosa clinical isolates and resistant strains. The format is cell-based. Particulars: P. aeruginosa. The protocol:
as §2, §3

Assay [21] deals with Klebsiella pneumoniae ATCC10031. The class given is in vivo. As to conditions: neutropenic mice, thigh, K. pneumoniae ATCC10031, total daily dosage 10 mg/Kg; Table 5B. The protocol: Groups of 5 female specific-pathogen-free CD-1 mice weighing 22±2 g were used. The animals were made neutropenic by intraperitoneal administration of cyclophosphamide on days −4 (150 mg/kg) and −1 (100 mg/kg). […] Examples 2, 4, 5, 6, 7, 8, 10, 11 and polymyxin B were prepared in Normal Saline at 2 mg/mL and the solution was adjusted to pH 6-7 by addition of 0.1M H2SO4 or 4.2% NaHCO3 as required. Twenty-four hours after infection, the mice were euthanized humanely. The muscle of the right thigh of each animal was harvested, homogenized, serially diluted and plated on Brain Heart Infusion agar+0.5% charcoal (w/v) for CFU determination. Decrease of the total CFU of right thigh as compared to control counts at 24 hrs post-infection was determined for each dose group. […] Using the same procedure as described above, the in vivo efficacy of three compounds of the invention (Examples 2,6, and 14) was evaluated in a mouse thigh infection model of Klebsiella pneumoniae ATCC10031, using Colistin (Polymyxin E) as comparator.

In the case of `CC(C)C[C@@H]1NC(=O)[C@@H](Cc2ccccc2)NC(=O)[C@H](CCN)NC(=O)[C@@H](NC(=O)[C@H](CCN)NC(=O)[C@@H](NC(=O)CCCCCCN)C(C)O)CCNC(=O)[C@H](C(C)O)NC(=O)[C@H](CCN)NC(=O)[C@H](CCN)NC1=O` (stereo partly shown) [Example 19, 7-Aminoheptanoyl polymyxin B nonapeptide] (H-[Ahp][Thr(3ξ)][Dab][Dab][Dab][dF]L[Dab][Dab][Thr(3ξ)]; lactam 4-C), the MIC is on record as 1 micrograms/mL in [1], 0.25 micrograms/mL in assay [2], 2 micrograms/mL in assay [3] and 16 micrograms/mL in assay [4]. In assay [5], the “IC50 HK-2 cells” value is on record as 157^c μg/mL.
Take `CC(C)C[C@@H]1NC(=O)[C@@H](Cc2ccccc2)NC(=O)[C@H](CCN)NC(=O)[C@@H](NC(=O)[C@H](CCN)NC(=O)[C@@H](NC(=O)CC(C)O)C(C)O)CCNC(=O)[C@H](C(C)O)NC(=O)[C@H](CCN)NC(=O)[C@H](CCN)NC1=O` (stereo partly drawn) [Example 22, 3-(R,S)-3-Hydroxybutanoyl polymyxin B nonapeptide] ({Butanoyl(3ξ-OH)}-[Thr(3ξ)][Dab][Dab][Dab][dF]L[Dab][Dab][Thr(3ξ)]; lactam 3-C): the MIC is reported as 4 micrograms/mL in [1], 0.5 micrograms/mL in [2], 8 micrograms/mL in assay [3] and >32 micrograms/mL in [4]. Further, in assay [5], the “IC50 HK-2 cells” value was 500^c μg/mL.
As to Colistin [reference compound], the MIC in assay [1] is on record as 1 micrograms/mL; in [6] it was 0.25 micrograms/mL; in assay [7] it was 0.5 micrograms/mL; in assay [8], 2 micrograms/mL; in assay [9], 0.5 micrograms/mL; in [10], 0.5 micrograms/mL. The MIC came out at 0.5 micrograms/mL in assay [2]; 0.5 micrograms/mL in assay [11]; 0.125 micrograms/mL in assay [3]; 0.25 micrograms/mL in assay [12]; 0.5 micrograms/mL in [13]; 0.25 micrograms/mL in assay [14]. For the same compound, the MIC in [15] was <0.06 micrograms/mL; in assay [16] it was 0.125 micrograms/mL. Besides, the “MIC50 Clinical isolates” value in assay [17] (clinical isolates), in assay [18] (clinical isolates), in assay [19] (clinical isolates) and in assay [20] (clinical isolates) was 2 µg/mL in each case. Further, the “MIC90 Clinical isolates” value in [17] (clinical isolates) turned out to be 2 µg/mL; in assay [18] (clinical isolates), 2 µg/mL; in assay [19] (clinical isolates), 4 µg/mL; in [20] (clinical isolates), 4 µg/mL. Also, the “MIC Range Clinical isolates” value lay in the range of 0.5 to 4 µg/mL in assay [17] (clinical isolates), 0.5 to 4 µg/mL in [18] (clinical isolates), 1 to 16 µg/mL in assay [19] (clinical isolates) and 0.25 to 4 µg/mL in [20] (clinical isolates). Also, the “MIC50 Resistant strains” value worked out at 2 µg/mL in assay [17] (resistant strains), 1 µg/mL in [18] (resistant strains), 2 µg/mL in assay [19] (resistant strains) and 2 µg/mL in assay [20] (resistant strains). Further, the “MIC90 Resistant strains” value amounted to 2 µg/mL in [17] (resistant strains), 1 µg/mL in [18] (resistant strains), 8 µg/mL in assay [19] (resistant strains) and 2 µg/mL in assay [20] (resistant strains). Moreover, the results for the “MIC Range Resistant strains” value in [17] (resistant strains), in assay [18] (resistant strains) and in assay [20] (resistant strains) were 1 to 4 µg/mL, 0.25 to 2 µg/mL and 0.5 to 2 µg/mL, respectively. In [21], the “Mean log10 CFU reduction vs. control” value is reported as 2.60 log10 CFU. The “IC50 HK-2 cells” value in assay [5] is 28^a μg/mL.
